Data: patent publication US11690832B2, “Treatment of autoimmune diseases with combinations of RXR agonists and thyroid hormones” (Io Therapeutics, Inc., priority 2016, dated 2023)
Entries after “also recorded” stand apart in the source; their conditions may differ.

Columns and labels:
[1] = system: Naive CD4+ CD25− FoxP3− cells; assay: Treg cell differentiation with RXR agonist in the presence of pan-RAR antagonist; assay type: cell-based, mouse; settings: 1 nM or 10 nM 194310 with IRX4204 at 1.0 nM; Treg conditions
Protocol: Naive CD4^+ CD25^− FoxP3^− cells were purified from a Foxp3-GFP mouse using flow cytometry by sorting and isolating based upon a GFP^− phenotype. These cells were then cultured under Treg cell differentiation conditions by treating the cells with αCD3 and αCD28 polyclonal antibodies in the presence of IL-2 and TGF-β. […] The cultured cells were then assayed for the expression of Foxp3. […] However, this partial inhibition of Fox3p expression may actually be due to the blocking of the effects of endogenous RA in the culture medium.

EAE in C57BL/6 (B6) mice = assay: CNS infiltrating cells in EAE mice (FACS, day 20); assay type: in vivo, mouse; settings: day 20 after immunization, vs vehicle control
Protocol: To determine whether a RXR agonist can reduce central nervous system (CNS) infiltrating cells, C57BL/6 (B6) mice were treated as described in Example 6. On day 20 after immunization, mice were sacrificed and perfused with phosphate buffered saline (PBS). Brain and spinal cord tissue was isolated, digested with DNase and Liberase DL (Roche Diagnostics, Indianapolis, Ind.) for 30 minutes, and homogenized through 70 micron nylon mesh filters. Resulting cells were placed over a Percoll gradient to remove myelin. The remaining cells (microglia and CNS infiltrating cells) were counted, stained for molecules of interest, and run on a flow cytometer. Based on the frequencies obtained by FACS of these cell populations, total cell numbers of CNS infiltrating leukocytes expressing CD45, including CD4^+ T cells and CD11c^+ CD11b^+ myeloid dendritic cells (DC), were calculated.

RARα = RARα (Homo sapiens, UniProt P10276); settings: at ≥1 μM
Sequence of RARα (P10276 183-417 limits assumed, species assumed): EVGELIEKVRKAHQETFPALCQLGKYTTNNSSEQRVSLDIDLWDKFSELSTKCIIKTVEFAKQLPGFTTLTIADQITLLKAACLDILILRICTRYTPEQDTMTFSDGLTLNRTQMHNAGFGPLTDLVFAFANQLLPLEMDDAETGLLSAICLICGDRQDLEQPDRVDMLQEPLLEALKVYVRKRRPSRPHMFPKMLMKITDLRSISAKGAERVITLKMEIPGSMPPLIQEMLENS
Protocol: To determine whether a RXR agonist can mediate its effects via RXRα receptor homodimers, RXRβ receptor homodimers, RXRγ receptor homodimers, or any combination thereof, or the corresponding RAR/RXR heterodimers, receptor-mediated transactivation assays were performed. For transactivation assays assessing RXR homodimer signaling, CV-1 cells were transfected with 1) an expression construct including a full length RXRα, RXRβ, or RXRγ; and 2) a rCRBPII/RXRE-tk-Luc reporter construct that included RXR homodimer-specific RXRE/DR1 responsive element linked to a luciferase gene. For transactivation assays assessing RAR/RXR heterodimer signaling, CV-1 cells were transfected with 1) an expression construct comprising a fusion protein including an estrogen receptor (ER) DNA binding domain linked to the ligand binding domain of RARα, RARβ, or RARγ and 2) a ERE-tk-Luc reporter construct that included an estrogen receptor responsive element linked to a luciferase gene. […] Data are mean values ±SE from five independent experiments.

RXRγ = target: T1, RXRγ (Homo sapiens, UniProt P48443); assay: RXR homodimer transactivation assay (rCRBPII/RXRE-tk-Luc reporter) in CV-1 cells; assay type: cell-based
T1 construct: an expression construct including a full length RXRα, RXRβ, or RXRγ; expressed in transfected cells; host or cells: CV-1
T1 sequence (P48443 1-463): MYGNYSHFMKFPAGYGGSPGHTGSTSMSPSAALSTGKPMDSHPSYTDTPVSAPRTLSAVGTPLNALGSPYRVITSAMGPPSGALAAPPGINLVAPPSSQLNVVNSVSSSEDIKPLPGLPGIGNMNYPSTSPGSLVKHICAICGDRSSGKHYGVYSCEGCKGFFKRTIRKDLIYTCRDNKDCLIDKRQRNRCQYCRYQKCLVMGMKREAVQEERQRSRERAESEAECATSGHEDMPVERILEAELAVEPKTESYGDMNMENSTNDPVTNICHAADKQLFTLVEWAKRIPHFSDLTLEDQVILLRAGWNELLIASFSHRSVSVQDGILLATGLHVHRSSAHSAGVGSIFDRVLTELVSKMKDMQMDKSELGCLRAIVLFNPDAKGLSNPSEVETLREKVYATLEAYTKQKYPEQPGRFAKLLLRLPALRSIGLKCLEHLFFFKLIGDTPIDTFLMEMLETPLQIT
Protocol: To determine whether a RXR agonist can mediate its effects via RXRα receptor homodimers, RXRβ receptor homodimers, RXRγ receptor homodimers, or any combination thereof, or the corresponding RAR/RXR heterodimers, receptor-mediated transactivation assays were performed. For transactivation assays assessing RXR homodimer signaling, CV-1 cells were transfected with 1) an expression construct including a full length RXRα, RXRβ, or RXRγ; and 2) a rCRBPII/RXRE-tk-Luc reporter construct that included RXR homodimer-specific RXRE/DR1 responsive element linked to a luciferase gene. For transactivation assays assessing RAR/RXR heterodimer signaling, CV-1 cells were transfected with 1) an expression construct comprising a fusion protein including an estrogen receptor (ER) DNA binding domain linked to the ligand binding domain of RARα, RARβ, or RARγ and 2) a ERE-tk-Luc reporter construct that included an estrogen receptor responsive element linked to a luciferase gene. The ER-RAR fusion proteins provided an accurate readout of only the transfected ER-RAR. […] Data are mean values ±SE from five independent experiments.

[2] = system: ethidium bromide demyelination of caudal cerebellar peduncles in one year old rats; assay: Focal toxin (ethidium bromide) induced rat model of demyelination; assay type: in vivo; settings: IRX4204 10 mg/kg/day oral
Protocol: The experiment uses rats of relatively advanced age (1 year) since such rats undergo remyelination in a less efficient manner, thereby providing data that are more relevant to the clinical treatment of human patients with multiple sclerosis or other demyelination disorders.
Focal demyelination is induced in one year old rats (approximately 300 g in weight) by injecting stereotactically 5 μl of ethidium bromide solution (0.01% vol/vol in saline) in a bilateral manner into the caudal cerebellar peduncles (CCP). […] The rats are killed on day 24 post-ethidium bromide treatment for analysis of remyelination by quantitative polymerase chain reaction (qPCR) and microscopy.

[3] = system: cuprizone/rapamycin demyelination in C57BL/6J mice; assay: 12-week cuprizone/rapamycin demyelination model, 6 weeks of treatment (remyelination); assay type: in vivo, mouse; settings: 10 mg/kg PO daily for 6 weeks after 12 weeks CR
From the text: All animals were sacrificed after 12 weeks of CR or after further 6 weeks of treatment to evaluate myelin in white matter (corpus callosum) and gray matter (hippocampus and cortex). In addition, the size of myelinated axons was quantified and the large myelinated axons were further assessed by 3D-electron microscopy (3D-EM). A total of 40 animals were included in the study, where all 40 animals received CR demyelination for 12 weeks. After demyelination, a subset (n=10) of animals are sacrificed to serve as controls to assess baseline demyelination. […] Floating brain sections are immunostained with myelin prolipid protein (PLP) to visualize and quantify myelin in gray matter, hippocampus (FIG. 16A) and cortex (FIG. 16B).

FXR/RXR = target: T2, FXR/RXR (Homo sapiens, UniProt P19793); assay: Permissive heterodimer transactivation assay, 3x(IBABP/IRI)-tk-Luc in CV-1 cells; assay type: cell-based; settings: 20 hr; relative to GW4064
T2 construct: expressed in transfected cells; host or cells: CV-1
T2 sequence (Q96RI1 whole entry partner): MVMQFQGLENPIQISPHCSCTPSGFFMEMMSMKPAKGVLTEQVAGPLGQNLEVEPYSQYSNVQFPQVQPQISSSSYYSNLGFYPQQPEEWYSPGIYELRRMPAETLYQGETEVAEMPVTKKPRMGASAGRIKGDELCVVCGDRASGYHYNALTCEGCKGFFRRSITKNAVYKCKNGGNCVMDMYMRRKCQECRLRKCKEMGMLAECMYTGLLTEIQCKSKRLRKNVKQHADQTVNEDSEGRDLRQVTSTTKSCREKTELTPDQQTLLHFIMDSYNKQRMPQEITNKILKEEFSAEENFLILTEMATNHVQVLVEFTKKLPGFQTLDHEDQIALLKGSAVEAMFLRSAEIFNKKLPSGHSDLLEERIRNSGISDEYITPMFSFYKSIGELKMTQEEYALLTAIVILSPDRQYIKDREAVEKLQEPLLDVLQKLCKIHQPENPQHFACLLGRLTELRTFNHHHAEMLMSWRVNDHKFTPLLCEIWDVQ
T2 sequence (P19793 whole entry): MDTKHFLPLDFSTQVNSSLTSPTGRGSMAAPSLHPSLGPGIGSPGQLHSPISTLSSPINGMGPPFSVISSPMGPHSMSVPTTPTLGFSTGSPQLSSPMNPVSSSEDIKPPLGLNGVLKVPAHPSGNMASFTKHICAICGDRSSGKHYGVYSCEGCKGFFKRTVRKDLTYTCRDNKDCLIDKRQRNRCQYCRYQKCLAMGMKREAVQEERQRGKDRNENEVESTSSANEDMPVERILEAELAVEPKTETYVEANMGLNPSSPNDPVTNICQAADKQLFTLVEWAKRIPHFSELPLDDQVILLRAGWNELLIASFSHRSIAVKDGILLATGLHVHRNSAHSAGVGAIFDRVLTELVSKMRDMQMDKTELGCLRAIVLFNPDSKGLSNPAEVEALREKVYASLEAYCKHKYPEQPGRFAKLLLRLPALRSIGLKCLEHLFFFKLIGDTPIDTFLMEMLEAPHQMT
From the text: (§1) For PPARγ: CV-1 cells were transfected with 3×(rAOX/DR1)-tk-Luc reporter gene and an expression vector for PPARγ. For FXR:CV-1 cells were transfected with 3×(IBABP/IRI)-tk-Luc reporter gene and vectors for FXR and RXRα. For LXR:CV-1 cells were transfected with 3×(PLTP/LXRE)-tk-Luc reporter gene with vectors for LXRα or LXRβ. For Nurr1: COS7 cells were transfected with 3×NBRE-tk-luc reporter gene and full length Nurr-1 with or without full-length RXRα plasmid. […] Luciferase data were normalized to co-transfected β-gal activity. Luciferase activity was expressed as percent of maximal activity obtained using specific agonists. Rosiglitazone (PPARγ), GW4064 (FXR), T0901317 (LXR).

[4] = system: cuprizone plus rapamycin (CR) demyelination in C57BL/6J mice
From the text: Animals (8 week-old male C57BL/6J mice) were subjected to cuprizone diet plus rapamycin injections (CR) for 6 weeks to induce demyelination. […] All animals were sacrificed after 6 weeks of CR to evaluate axonal integrity and microglial/macrophage activity in the white matter (corpus callosum, CC).
A total of 50 animals were included in the study, where 43 animals received CR demyelination for 6 weeks. During demyelination, a subset (n=7) of animals were kept on normal diet to serve as naïve age-matched controls.

LXRβ/RXR = assay: Permissive heterodimer transactivation assay, 3x(PLTP/LXRE)-tk-Luc in CV-1 cells; assay type: cell-based; settings: 20 hr; relative to T0901317
From the text: as §1

LXRα/RXR = assay: as above; assay type: cell-based; settings: 20 hr; relative to T0901317
From the text: as §1

EAE in B6 mice = assay: EAE dose titration experiment with spleen and CNS flow cytometry; assay type: in vivo, mouse; settings: 200 μg/day vs vehicle control
Protocol: A dose titration experiment was also conducted in EAE mice. EAE was induced in 28 B6 mice with MOG/CFA and PT as above. Mice were scored on day 7 as indicated above and divided into groups by score so means are as equal as possible.
At the completion of the experiment, the vehicle control and 200 μg/day groups were euthanized and spleen and CNS samples obtained.
Additionally, CD4+ CD25hi cells (generally consisting of TReg) were reduced, although the frequency was not altered (FIGS. 9A and 9B).
Restimulation with PMA/lonomycin was used to help detect the cytokine production.

[5] = system: oligodendrocyte precursor cells (OPCs); assay: Oligodendrocyte precursor cell differentiation (PLP-EGFP, Cellomics); assay type: cell-based, mouse; settings: compared to negative control (DMSO)
From the text: OPCs were generated from a neurosphere culture of E14.5 PLP-EGFP (on C57BL/6J background) mouse brains. […] The EGFP expressing cells were quantified with Cellomics Neuronal Profiling Algorithm.
The EGFP expressing cells in controls and all compounds were quantified with Cellomics Neuronal Profiling Algorithm.

[6] = system: Naive CD4+ CD25− FoxP3− cells; assay: T cell differentiation under Th17 cell differentiation conditions (Foxp3, IL-17A); assay type: cell-based, mouse; settings: 0, 1, 10, 100 nM, with increasing concentration
Protocol: To determine whether a RXR agonist can regulate T cell differentiation, the ability of an RXR agonist to promote Treg cell differentiation and inhibit Th17 cell differentiation under Th17 cell differentiation conditions was assessed by monitoring Foxp3 and IL-17A expression. Naive CD4^+ CD25^− FoxP3^− cells were purified from a Foxp3-GFP mouse using flow cytometry by sorting and isolating based upon a GFP^− phenotype.

Compound	effect on induction of Foxp3 expression by RXR agonist [1]	infiltration of CD4+ cells into CNS (EAE in C57BL/6 (B6) mice)	infiltration of CD11c+ CD11b+ cells (myeloid DC) into CNS (EAE in C57BL/6 (B6) mice)	RARα activity detected (RARα)	Efficacy (% of 1 μM IRX4204) RXRγ (RXRγ)	densities of Olig2+ oligodendrocyte lineage cells and CC1+ differentiated oligodendrocytes in lesions ([2]; day 7 to 21, ± 20 ng/g s.c. thyroxine)	Mbp and Pdgfra expression (real-time qPCR of lesion samples) ([2]; ± 20 ng/g s.c. thyroxine)	size of myelinated axons in the corpus callosum [3]	activation of FXR/RXR heterodimer (FXR/RXR)	health concerns during the treatment phase ([4]; 6 weeks)	number of SMI32 positive axonal ovoids in corpus callosum ([4]; compared to Vehicle, 6 weeks concurrent with CR)	Iba1 staining (microglial/macrophage activation) in corpus callosum ([4]; compared to vehicle)	activation of LXRβ/RXR heterodimer (LXRβ/RXR)	activation of LXRα/RXR heterodimer (LXRα/RXR)	CD4+ CD25hi cells frequency, spleen (EAE in B6 mice)	co-expression of IFNγ and IL-17A by CD4 T cells in CNS (EAE in B6 mice)	OPC differentiation into oligodendrocytes (EGFP positive cells) [5]	Foxp3 expression (Treg cells) [6]	IL-17A expression (Th17 cells) [6]
CCc1ccc(C2=CC(C)(C)Sc3ccc(C#Cc4ccc(C(=O)O)cc4)cc32)cc1 [Compound 194310]	only partially blocked																		
CC(/C=C/[C@@H]1C[C@]1(C)c1ccc2c(c1)C(C)(C)CCC2(C)C)=C\C(=O)O [IRX4204, 3,7-dimethyl-6(S),7(S)-methano,7-[1,1,4,4-tetramethyl-1,2,3,4-tetrahydronaphth-7-yl]2(E),4(E) heptadienoic acid]		significant reduction	significant reduction	minimal activity	0.09 ± 0.01 100 % of 1 μM IRX4204	increased	increase	significant increase	not to transactivate; also recorded: does not activate	no observed health concerns	not statistically different from the Vehicle	no difference	not to transactivate; also recorded: does not activate	not to transactivate; also recorded: does not activate	not altered	not significantly different between groups	significant increase; also recorded: dose dependent increase	increased	decreased
